# Measured values taken from PubChem BioAssay (NCI).
#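 All cell lines were grown in 96-well plates and treated with compound for 48 hours. At the TGI there is no net growth.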
# Tests used:
# Test in all cases: inhibition of tumour cell growth, NCI panel, 48 h
# OVCAR-5 ovarian = test system: OVCAR-5 ovarian
# OVCAR-8 ovarian = test system: OVCAR-8 ovarian
# HOP-92 NSCLC = test system: HOP-92 NSCLC
# MCF7 breast = test system: MCF7 breast
# A549 NSCLC = test system: A549 NSCLC
# HS 578T breast = test system: HS 578T breast
# SF-268 CNS = test system: SF-268 CNS
# CCRF-CEM leukemia = test system: CCRF-CEM leukemia
# BT-549 breast = test system: BT-549 breast
# MOLT-4 leukemia = test system: MOLT-4 leukemia
# HCT-116 colon = test system: HCT-116 colon
# RPMI-8226 leukemia = test system: RPMI-8226 leukemia
# HCC-2998 colon = test system: HCC-2998 colon
# SN12C renal = test system: SN12C renal
# COLO 205 colon = test system: COLO 205 colon
# DU-145 prostate = test system: DU-145 prostate
# SK-MEL-2 melanoma = test system: SK-MEL-2 melanoma
# MDA-MB-435 = test system: MDA-MB-435
# UACC-62 melanoma = test system: UACC-62 melanoma
# U251 CNS = test system: U251 CNS
# LOX IMVI melanoma = test system: LOX IMVI melanoma
# SNB-19 CNS = test system: SNB-19 CNS
# ACHN renal = test system: ACHN renal
# MDA-MB-231 breast = test system: MDA-MB-231 breast
# K-562 leukemia = test system: K-562 leukemia
# OVCAR-4 ovarian = test system: OVCAR-4 ovarian
# SK-OV-3 ovarian = test system: SK-OV-3 ovarian
# UACC-257 melanoma = test system: UACC-257 melanoma
# A498 renal = test system: A498 renal
# T-47D breast = test system: T-47D breast
# HOP-62 NSCLC = test system: HOP-62 NSCLC
# CAKI-1 renal = test system: CAKI-1 renal
# TK-10 renal = test system: TK-10 renal
# MDA-N = test system: MDA-N
# SW-620 colon = test system: SW-620 colon
# NCI-H460 lung = test system: NCI-H460 lung
# NCI-H522 lung = test system: NCI-H522 lung
# NCI-H226 lung = test system: NCI-H226 lung
# PC-3 prostate = test system: PC-3 prostate
# HT29 colon = test system: HT29 colon
# SK-MEL-5 melanoma = test system: SK-MEL-5 melanoma
# UO-31 renal = test system: UO-31 renal
# 786-0 renal = test system: 786-0 renal
# SF-539 CNS = test system: SF-539 CNS
# RXF 393 renal = test system: RXF 393 renal
# MALME-3M melanoma = test system: MALME-3M melanoma
# KM12 colon = test system: KM12 colon
# SK-MEL-28 melanoma = test system: SK-MEL-28 melanoma
# HCT-15 colon = test system: HCT-15 colon
# M14 melanoma = test system: M14 melanoma
# NCI-H23 lung = test system: NCI-H23 lung
# HL-60(TB) leukemia = test system: HL-60(TB) leukemia
# IGROV1 ovarian = test system: IGROV1 ovarian
# OVCAR-3 ovarian = test system: OVCAR-3 ovarian
# SR leukemia = test system: SR leukemia
# EKVX NSCLC = test system: EKVX NSCLC
# NCI/ADR-RES ovarian = test system: NCI/ADR-RES ovarian
# SF-295 CNS = test system: SF-295 CNS
# SNB-75 CNS = test system: SNB-75 CNS
compound,measurement,setting,value
CN(C)CCCN1c2ccccc2Sc2ccc3ccccc3c21,TGI,OVCAR-5 ovarian,24.7 µM
same,TGI,OVCAR-8 ovarian,27.1 µM
same,TGI,HOP-92 NSCLC,21 µM
same,TGI,MCF7 breast,14.9 µM
same,TGI,A549 NSCLC,26.6 µM
same,TGI,HS 578T breast,25.6 µM
same,TGI,SF-268 CNS,23.4 µM
same,TGI,CCRF-CEM leukemia,8.2 µM
same,TGI,BT-549 breast,26.3 µM
same,TGI,MOLT-4 leukemia,10.1 µM
same,TGI,HCT-116 colon,22.9 µM
same,TGI,RPMI-8226 leukemia,7.45 µM
same,TGI,HCC-2998 colon,3.04 µM
same,TGI,SN12C renal,22.9 µM
same,TGI,COLO 205 colon,10 µM
same,TGI,DU-145 prostate,25.4 µM
same,TGI,SK-MEL-2 melanoma,13.1 µM
same,TGI,MDA-MB-435,10.4 µM
same,TGI,UACC-62 melanoma,9.62 µM
same,TGI,U251 CNS,20 µM
same,TGI,LOX IMVI melanoma,19.8 µM
same,TGI,SNB-19 CNS,28.8 µM
same,TGI,ACHN renal,20.9 µM
same,TGI,MDA-MB-231 breast,13.7 µM
same,TGI,K-562 leukemia,5.56 µM
same,TGI,OVCAR-4 ovarian,17.8 µM
same,TGI,SK-OV-3 ovarian,27.5 µM
same,TGI,UACC-257 melanoma,4.1 µM
same,TGI,A498 renal,14 µM
same,TGI,T-47D breast,5.65 µM
same,TGI,HOP-62 NSCLC,24.8 µM
same,TGI,CAKI-1 renal,18.1 µM
same,TGI,TK-10 renal,17.7 µM
same,TGI,MDA-N,15.1 µM
same,TGI,SW-620 colon,22.6 µM
same,TGI,NCI-H460 lung,7.66 µM
same,TGI,NCI-H522 lung,22.8 µM
same,TGI,NCI-H226 lung,19 µM
same,TGI,PC-3 prostate,14.6 µM
same,TGI,HT29 colon,12.5 µM
same,TGI,SK-MEL-5 melanoma,8.21 µM
same,TGI,UO-31 renal,17 µM
same,TGI,786-0 renal,23.4 µM
same,TGI,SF-539 CNS,30.9 µM
same,TGI,RXF 393 renal,3.92 µM
same,TGI,MALME-3M melanoma,21.6 µM
same,TGI,KM12 colon,19.3 µM
same,TGI,SK-MEL-28 melanoma,4.26 µM
same,TGI,HCT-15 colon,19.2 µM
same,TGI,M14 melanoma,3.3 µM
same,TGI,NCI-H23 lung,28.2 µM
same,TGI,HL-60(TB) leukemia,0.0372 µM
same,TGI,IGROV1 ovarian,23.4 µM
same,TGI,OVCAR-3 ovarian,21.7 µM
same,TGI,SR leukemia,3.84 µM
same,TGI,EKVX NSCLC,23.9 µM
same,TGI,NCI/ADR-RES ovarian,22.5 µM
same,TGI,SF-295 CNS,26.3 µM
COc1ccc(C2SCC(=O)N2c2ccc(-c3ccc(-n4c(-c5ccccc5)nc5ccccc5c4=O)cc3)cc2)cc1OC (stereo unspecified),TGI,OVCAR-8 ovarian,> 100 µM
same,TGI,HOP-92 NSCLC,> 100 µM
same,TGI,MCF7 breast,> 100 µM
same,TGI,A549 NSCLC,> 100 µM
same,TGI,HS 578T breast,> 100 µM
same,TGI,SF-268 CNS,> 100 µM
same,TGI,CCRF-CEM leukemia,92.5 µM
same,TGI,BT-549 breast,51.1 µM
same,TGI,MOLT-4 leukemia,> 100 µM
same,TGI,HCT-116 colon,> 100 µM
same,TGI,RPMI-8226 leukemia,> 100 µM
same,TGI,SN12C renal,> 100 µM
same,TGI,COLO 205 colon,> 100 µM
same,TGI,DU-145 prostate,> 100 µM
same,TGI,MDA-MB-435,> 100 µM
same,TGI,SNB-75 CNS,> 100 µM
same,TGI,UACC-62 melanoma,> 100 µM
same,TGI,U251 CNS,> 100 µM
same,TGI,LOX IMVI melanoma,51.5 µM
same,TGI,SNB-19 CNS,> 100 µM
same,TGI,MDA-MB-231 breast,> 100 µM
same,TGI,K-562 leukemia,96 µM
same,TGI,OVCAR-4 ovarian,> 100 µM
same,TGI,SK-OV-3 ovarian,> 100 µM
same,TGI,UACC-257 melanoma,> 100 µM
same,TGI,A498 renal,> 100 µM
same,TGI,T-47D breast,> 100 µM
same,TGI,HOP-62 NSCLC,37.6 µM
same,TGI,CAKI-1 renal,> 100 µM
same,TGI,TK-10 renal,83.9 µM
same,TGI,MDA-N,> 100 µM
same,TGI,SW-620 colon,> 100 µM
same,TGI,NCI-H460 lung,> 100 µM
same,TGI,NCI-H226 lung,> 100 µM
same,TGI,PC-3 prostate,> 100 µM
same,TGI,HT29 colon,> 100 µM
same,TGI,UO-31 renal,> 100 µM
same,TGI,786-0 renal,> 100 µM
same,TGI,SF-539 CNS,> 100 µM
same,TGI,RXF 393 renal,> 100 µM
same,TGI,MALME-3M melanoma,> 100 µM
same,TGI,KM12 colon,28.3 µM
same,TGI,SK-MEL-28 melanoma,> 100 µM
same,TGI,HCT-15 colon,> 100 µM
same,TGI,M14 melanoma,> 100 µM
same,TGI,NCI-H23 lung,> 100 µM
same,TGI,HL-60(TB) leukemia,> 100 µM
same,TGI,IGROV1 ovarian,> 100 µM
same,TGI,OVCAR-3 ovarian,> 100 µM
same,TGI,SR leukemia,> 100 µM
same,TGI,EKVX NSCLC,> 100 µM
same,TGI,NCI/ADR-RES ovarian,> 100 µM
same,TGI,SF-295 CNS,33.5 µM
